Here are results for one compound from publication PMC12363935, “Unc-51 Like Kinase 3 (ULK3) is essential for autophagy and cell survival in multiple myeloma” (Research Square, 2025).

Data set [1] has as its system human mesenchymal stem cells (hMSCs). Put plainly: MTS assay on hMSCs. Format: cell-based. To be noted: nM concentration. How it is done:
complex. Supplementary Figure 5. […]
here as reference for BRD4 inhibitory activity. […] NA=
1 hour incubation with liver microsomes. C.
ULK3 rendered in Pymol (Schrodinger Inc.) at a 2.8 Å resolution. D. Table summarizing hULK3-MA9060 crystallographic data collection and refinement statistics. E. MA9060 is a dual inhibitor, able to decrease both ULK3 and MYC protein levels in MYC-dependent MM1.S MM cells. JQ1 is here included as the control for […]
mesenchymal stem cells (hMSCs) at 24 (G) and 48 (H) hours.

Another data set deals with T1, ULK1 (Homo sapiens, UniProt O75385).
T1 construct: purchased Reaction Biology Corporation
T1 sequence (O75385 1-1050): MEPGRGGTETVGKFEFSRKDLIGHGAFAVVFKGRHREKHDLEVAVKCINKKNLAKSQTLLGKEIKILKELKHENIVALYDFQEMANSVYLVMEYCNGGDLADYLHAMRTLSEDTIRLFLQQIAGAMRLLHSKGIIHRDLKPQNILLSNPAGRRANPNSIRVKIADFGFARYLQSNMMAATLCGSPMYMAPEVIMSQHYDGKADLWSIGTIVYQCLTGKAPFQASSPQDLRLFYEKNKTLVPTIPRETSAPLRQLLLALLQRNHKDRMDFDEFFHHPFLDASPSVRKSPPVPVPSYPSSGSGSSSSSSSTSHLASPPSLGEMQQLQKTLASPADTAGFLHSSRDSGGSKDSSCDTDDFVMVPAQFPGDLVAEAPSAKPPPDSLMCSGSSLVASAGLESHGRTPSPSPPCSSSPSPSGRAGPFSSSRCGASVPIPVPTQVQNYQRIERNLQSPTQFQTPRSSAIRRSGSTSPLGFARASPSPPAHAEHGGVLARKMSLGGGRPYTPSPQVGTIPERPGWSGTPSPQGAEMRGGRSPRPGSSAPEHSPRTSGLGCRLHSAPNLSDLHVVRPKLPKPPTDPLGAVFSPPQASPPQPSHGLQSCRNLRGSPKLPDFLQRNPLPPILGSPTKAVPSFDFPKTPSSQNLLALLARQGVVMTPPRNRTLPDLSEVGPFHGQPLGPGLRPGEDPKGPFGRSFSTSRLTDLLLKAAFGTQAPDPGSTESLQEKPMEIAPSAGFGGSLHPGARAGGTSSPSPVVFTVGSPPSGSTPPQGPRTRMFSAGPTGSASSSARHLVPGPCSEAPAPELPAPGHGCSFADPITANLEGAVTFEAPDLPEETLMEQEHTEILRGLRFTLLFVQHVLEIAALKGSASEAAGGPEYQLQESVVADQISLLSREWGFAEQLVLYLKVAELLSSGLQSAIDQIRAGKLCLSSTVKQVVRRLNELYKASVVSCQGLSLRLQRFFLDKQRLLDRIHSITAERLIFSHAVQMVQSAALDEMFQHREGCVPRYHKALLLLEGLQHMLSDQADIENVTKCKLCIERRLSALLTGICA
As to the kind of experiment: Kinase profiling assay (Reaction Biology), 10-dose IC50, 10 μM ATP. Format: biochemical. The protocol: (§1) 310 and refinement were performed with COOT [14] and Phenix.Refine to obtain a clear electron
(§2) 311 density map (1Fo-Fc) for compound MA9-060, which was built into the structure near the end of
(§3) 312 iterative cycles of model building and refinement. Crystal parameters, data collection statistics and
(§4) 313 refinement statistics are summarized in Supplementary Fig. 4D and deposited in the protein
(§5) 314 databank with PDB code 8V1M.
(§6) 317 The compounds under investigation were tested by Reaction Biology Corporation against four
(§7) 318 specific kinases in this study (JAK2, ULK1, ULK2, ULK3). Each compound was provided as a
(§8) 319 10 mM stock solution. To facilitate dissolution, the compounds were subjected to gentle heating.
(§9) 320 Subsequent testing involved the evaluation of the compounds using a 10-dose IC50 mode,
(§10) Additionally, the control compound,
(§11) Throughout these experiments, reactions were conducted using a standardized concentration
(§12) 325 The data collected during these assays encompass raw data, % enzyme activity (relative to DMSO
(§13) 327 activities at the highest concentration of compounds were less than 65%. The IC50 summary,
(§14) 328 detailing the inhibitory concentrations of the compounds against the respective kinases, is
(§15) 331 Bromodomain profiling assay
(§16) 333 evaluated against Bromodomain 1 by Reaction Biology Corporation.
(§17) 334 The compounds were subjected to testing using a 10-dose IC50 singlet approach, involving a 3-
(§18) 335 fold serial dilution starting at 10 μM, specifically against BRD4-1. Additionally, as a benchmark,
(§19) 337 dilution starting at 10 μM.
(§20) 338 For ligand and detection purposes, the H4/4Ac ligand, representing the Histone H4 peptide (1-21)
(§21) 339 with acetylation at lysine residues K5, K8, K12, and K16, and tagged with Biotin, was utilized.

In the next data set the target is T2, JAK2 (Homo sapiens, UniProt O60674).
T2 construct: purchased Reaction Biology Corporation
The description is as above. To be noted: NA = no activity. Format: biochemical. How it is done: as §1, §2, §3, §4, §5, §6, §7, §8, §9, §10, §11, §12, §13, §14, §15, §16, §17, §18, §19, §20, §21

The target of a further data set is T3, ULK2 (Homo sapiens, UniProt Q8IYT8).
T3 construct: purchased Reaction Biology Corporation
T3 sequence (Q8IYT8 1-1036): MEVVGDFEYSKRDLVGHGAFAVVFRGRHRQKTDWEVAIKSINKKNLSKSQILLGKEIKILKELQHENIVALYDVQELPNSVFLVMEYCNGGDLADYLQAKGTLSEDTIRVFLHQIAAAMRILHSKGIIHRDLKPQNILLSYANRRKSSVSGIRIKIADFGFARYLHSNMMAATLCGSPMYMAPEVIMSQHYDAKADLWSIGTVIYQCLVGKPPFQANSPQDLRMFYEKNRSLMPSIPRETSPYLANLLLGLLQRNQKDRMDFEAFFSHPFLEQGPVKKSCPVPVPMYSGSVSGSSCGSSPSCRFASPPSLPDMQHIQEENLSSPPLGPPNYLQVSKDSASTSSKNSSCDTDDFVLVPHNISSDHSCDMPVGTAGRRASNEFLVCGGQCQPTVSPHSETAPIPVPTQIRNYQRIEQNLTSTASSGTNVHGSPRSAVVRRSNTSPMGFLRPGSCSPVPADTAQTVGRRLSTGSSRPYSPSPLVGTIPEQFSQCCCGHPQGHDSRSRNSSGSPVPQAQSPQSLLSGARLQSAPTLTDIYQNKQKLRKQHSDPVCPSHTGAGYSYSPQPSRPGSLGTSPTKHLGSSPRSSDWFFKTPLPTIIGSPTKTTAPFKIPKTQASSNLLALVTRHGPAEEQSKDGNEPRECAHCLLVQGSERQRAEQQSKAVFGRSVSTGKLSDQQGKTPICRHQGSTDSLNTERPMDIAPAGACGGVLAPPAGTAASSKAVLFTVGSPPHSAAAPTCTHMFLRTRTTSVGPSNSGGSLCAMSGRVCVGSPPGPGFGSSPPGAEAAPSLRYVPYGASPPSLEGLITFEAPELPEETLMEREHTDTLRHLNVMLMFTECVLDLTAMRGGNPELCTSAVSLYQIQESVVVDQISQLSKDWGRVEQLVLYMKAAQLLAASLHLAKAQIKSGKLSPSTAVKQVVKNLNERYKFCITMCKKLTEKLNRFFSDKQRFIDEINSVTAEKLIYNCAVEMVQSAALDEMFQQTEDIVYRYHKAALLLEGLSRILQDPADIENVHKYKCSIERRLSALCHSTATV
The description is as above. Format: biochemical. To be noted: NA = no activity. How it is done: as §1, §2, §3, §4, §5, §6, §7, §8, §9, §10, §11, §12, §13, §14, §15, §16, §17, §18, §19, §20, §21

T2 sequence (O60674 whole entry): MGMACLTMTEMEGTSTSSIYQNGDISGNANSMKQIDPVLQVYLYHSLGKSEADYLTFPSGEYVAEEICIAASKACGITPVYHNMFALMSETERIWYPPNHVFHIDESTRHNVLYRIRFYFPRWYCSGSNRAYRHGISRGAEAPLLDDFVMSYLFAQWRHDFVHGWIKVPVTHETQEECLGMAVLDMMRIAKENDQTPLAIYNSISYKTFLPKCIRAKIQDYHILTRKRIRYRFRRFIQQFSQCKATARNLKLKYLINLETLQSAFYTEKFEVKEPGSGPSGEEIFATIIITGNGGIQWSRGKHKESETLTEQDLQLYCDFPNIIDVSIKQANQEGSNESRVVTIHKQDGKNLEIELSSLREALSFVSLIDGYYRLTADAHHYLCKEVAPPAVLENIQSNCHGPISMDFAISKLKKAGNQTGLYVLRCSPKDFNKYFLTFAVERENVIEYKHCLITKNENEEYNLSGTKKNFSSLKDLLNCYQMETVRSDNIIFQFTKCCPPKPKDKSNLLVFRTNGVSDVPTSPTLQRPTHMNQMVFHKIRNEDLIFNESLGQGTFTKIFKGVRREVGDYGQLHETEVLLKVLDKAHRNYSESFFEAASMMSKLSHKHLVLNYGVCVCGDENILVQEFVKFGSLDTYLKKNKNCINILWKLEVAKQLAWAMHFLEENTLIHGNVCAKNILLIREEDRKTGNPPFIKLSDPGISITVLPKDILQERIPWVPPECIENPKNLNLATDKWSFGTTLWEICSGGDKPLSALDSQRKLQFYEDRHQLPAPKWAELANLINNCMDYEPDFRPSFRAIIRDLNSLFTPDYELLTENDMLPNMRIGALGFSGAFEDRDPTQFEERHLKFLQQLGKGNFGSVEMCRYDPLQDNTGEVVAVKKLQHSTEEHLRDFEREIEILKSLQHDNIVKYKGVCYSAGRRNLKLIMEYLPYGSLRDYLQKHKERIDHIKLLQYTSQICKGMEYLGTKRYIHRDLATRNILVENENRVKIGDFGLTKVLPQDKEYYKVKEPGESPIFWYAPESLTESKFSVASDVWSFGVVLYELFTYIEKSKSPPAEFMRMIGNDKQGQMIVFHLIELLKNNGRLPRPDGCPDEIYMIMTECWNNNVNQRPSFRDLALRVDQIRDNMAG

As to `Cc1cnc(Nc2ccc(C3CCN(C)CC3)c(F)c2)nc1Nc1ccc(Cl)c(NS(=O)(=O)C(C)(C)C)c1` [MA9060], the “toxicity to normal primary human MSCs” value in data set [1] was “not toxic”. Further, the figures for the IC50 at ULK1, on JAK2 and against ULK2 were 1710 nM, 6.7 nM and 4300 nM, respectively.
